Values after ≈ are worked out from the molar mass of the structure shown. Read-outs that look alike come from different tables or passages of the source. Where a SMILES comes first, the peptide text is derived from it.
Experiments:
[1] = test system: S. aureus ATCC 25923 biofilm formation; assay type: cell-based, Staphylococcus aureus; conditions: ATCC 25923, 24 h
Experimental: (§1) The minimum inhibitory concentrations (MICs) of test compounds were assessed by broth microdilution method on 96-well plates, according to the guidelines of Clinical and Laboratory Standards Institute (CLSI). For this purpose, reference strains of bacteria: S. aureus ATCC 25923, E. faecalis PCM 2673, E. coli ATCC 25922, and P. aeruginosa ATCC 9027; and fungus: C. albicans ATCC 10231 were used (The Polish Collection of Microorganism, Polish Academy of Sciences, Wrocław, Poland). Bacteria at initial inoculums of 0.5 × 10^5 CFU/mL in Mueller Hinton Broth (MHB), and fungi at initial inoculums of 2 × 10^3 CFU/mL in RPMI-1640, were exposed to the compounds over the concentration range of 1–512 μg/mL. The polystyrene plates were incubated at 37 °C for 18 h with bacteria and for 24 h with C. albicans. The MIC was taken as the lowest concentration at which a noticeable growth of microorganisms was inhibited. Minimum biofilm eradication concentrations (MBECs) were determined using a previously described protocol. For this purpose, 96-well polystyrene flat-bottom plates and a resazurin (7-hydroxy-3H-phenoxazin-3-one 10-oxide) were used. In this assay, a specific feature of resazurin is utilized, which upon the contact with living cells is metabolized and reduced from the basic blue form to pink resorufin. Briefly, 24-h cultures of microorganisms were diluted 1,000-fold and 100 μL of that suspension was added into the test plates. After 24 h of incubation at 37 °C, the wells of the plates were rinsed three times with phosphate buffer saline (PBS) to remove non-adherent cells. Subsequently, 100 μL of test compounds in concentration range (diluted in appropriate media) were added to each well. After 24 h of incubation at 37 °C, 20 μL of the resazurin (4 mg/mL) was added. The MBEC was read after 1 h. Additionally, anti-adhesive properties of the compounds were also analyzed. The assay was conducted on 96-well polystyrene flat-bottom plates. The preparation of inoculums was followed by a 500-fold dilution of 24-h cultures of microorganisms. Briefly, to evaluate the effect of the peptides in preventing biofilm formation, 50 μL of compounds in concentration range, diluted in appropriate medium, were prepared. Subsequently, the 50 μL of the bacterial/fungal inoculums were added to reach the same microbial density as that in MBEC assay. After 24 h of incubation at 37 °C, the wells were rinsed three times with PBS and the fresh media with resazurin (0.6 mg/mL) were added. Then, after 1 h of incubation, the minimum biofilm inhibitory concentrations (MBIC) were read. MBECs as well as MBICs were determined as the lowest concentration at which the reduction of resazurin was lower or equal (10% ± 0.5%) as compared to positive (100%) and negative (0%) controls. All experiments were performed in triplicate.

[2] = test system: S. aureus ATCC 25923 biofilm; assay type: cell-based, Staphylococcus aureus; conditions: ATCC 25923, 24 h
Experimental: as §1

S. aureus ATCC 25923 = assay type: cell-based, Staphylococcus aureus; conditions: ATCC 25923, 18 h
Experimental: as §1

[3] = test system: E. faecalis PCM 2673 biofilm formation; assay type: cell-based, Enterococcus faecalis; conditions: 24 h
Experimental: as §1

[4] = test system: E. faecalis PCM 2673 biofilm; assay type: cell-based, Enterococcus faecalis; conditions: 24 h
Experimental: as §1

E. faecalis PCM 2673 = assay type: cell-based, Enterococcus faecalis; conditions: PCM 2673, 18 h
Experimental: as §1

[5] = test system: E. coli ATCC 25922 biofilm formation; assay type: cell-based, Escherichia coli; conditions: ATCC 25922, 24 h
Experimental: as §1

[6] = test system: E. coli ATCC 25922 biofilm; assay type: cell-based, Escherichia coli; conditions: ATCC 25922, 24 h
Experimental: as §1

E. coli ATCC 25922 = assay type: cell-based, Escherichia coli; conditions: ATCC 25922, 18 h
Experimental: as §1

[7] = test system: P. aeruginosa ATCC 9027 biofilm formation; assay type: cell-based, Pseudomonas aeruginosa; conditions: ATCC 9027, 24 h
Experimental: as §1

[8] = test system: P. aeruginosa ATCC 9027 biofilm; assay type: cell-based, Pseudomonas aeruginosa; conditions: ATCC 9027, 24 h
Experimental: as §1

P. aeruginosa ATCC 9027 = assay type: cell-based, Pseudomonas aeruginosa; conditions: ATCC 9027, 18 h
Experimental: as §1

[9] = test system: C. albicans ATCC 10231 biofilm formation; assay type: cell-based, Candida albicans; conditions: ATCC 10231, 24 h
Experimental: as §1

[10] = test system: C. albicans ATCC 10231 biofilm; assay type: cell-based, Candida albicans; conditions: ATCC 10231, 24 h
Experimental: as §1

C. albicans ATCC 10231 = assay type: cell-based, Candida albicans; conditions: ATCC 10231, 24 h
Experimental: as §1

[11] = test system: human red blood cells (RBCs); experiment: Hemolysis assay; assay type: cell-based
Experimental: The hemolytic activity of the peptides was determined using fresh human red blood cells (RBCs) collected from a healthy human donor according to the procedure described in the literature. Fresh RBCs with EDTA as anticoagulant were rinsed three times with a PBS by centrifugation at 800×g for 10 min and resuspension in PBS. Serial dilution of the peptides in PBS (1–256 μg/mL) on 96-well polystyrene plates was prepared and the stock solution of RBCs was added up to a final volume of 100 μL with a 4% concentration of erythrocytes (v/v). The control wells for 0 and 100% hemolysis contained of RBCs suspended in PBS and 1% of Triton-X 100, respectively. Subsequently, the plates were incubated for 1 h at 37 °C and then centrifuged at 800×g for 10 min at 4 °C (Sorvall ST 16R Centrifuge, Thermo Scientific). After centrifugation, the supernatant was carefully […] to new microtiter plates and the release of hemoglobin was measured at 540 nm (Multiskan™ GO Microplate Spectrophotometer, Thermo Scientific). All experiments were conducted in triplicate.

in vitro = in vitro ADME; conditions: bovine, serum
Experimental: To assess serum stability, the peptides (0.5 mg) were dissolved in 4 mL of 25% (v/v) fetal bovine serum (FBS) in PBS and incubated at 37 °C. The aliquots of 100 μL of the test samples were transferred to 96-well polystyrene plates in triplicate for each time point. Samples were quenched at zero time (t0) and after 6 h of incubation at 37 °C by addition of 100 μL of ice-cold acetonitrile and stored at 4 °C for 10 min. Afterwards, the samples were centrifuged at 13,000×g for 20 min at 4 °C and diluted 1:1 with HPLC-grade water. All samples were analyzed using the Waters Alliance e2695 system with Waters Acquity QDa Detector (software–Empower®3). Analyses were conducted on an Agilent Zorbax SB-C18 RP-18 column (4.6 × 50 mm, 1.8-μm particle size, 80-Å pore size) using a linear 30–60% acetonitrile (B) gradient in deionized water (A) over 6 min at 25.0 ± 0.1 °C, at a flow rate of 0.5 mL/min and MS working in selected ion recording (SIR) mode (A—0.1% aqueous formic acid (FA) and B—0.1% FA in acetonitrile). The percentage of peptide remaining intact was calculated from peak areas of samples at t0 and after 6 h of incubation in serum (the % of remaining peptide = peak area after 6 h/peak area at t0). The mass-to-charge ratios selected for SIR mode were based on values obtained from full spectrum analysis of each peptide and are presented in Table 1.

## CC[C@H](C)[C@H](NC(=O)[C@H](CCCCN)NC(=O)[C@H](CCCCN)NC(=O)[C@@H](NC(=O)[C@@H](NC(=O)[C@H](CC(=O)O)NC(=O)[C@H](Cc1ccccc1)NC(=O)[C@H](CC(C)C)NC(=O)CN)[C@@H](C)CC)[C@@H](C)CC)C(=O)N[C@@H](C)C(=O)N[C@@H](CCC(=O)O)C(=O)N[C@@H](CO)C(=O)N[C@@H](C)C(N)=O [Peptide F13A] (H-GLFDIIKKIAESA-NH2)
[1]
  MBIC, S. aureus ATCC 25923: >512 µg/mL
[2]
  MBEC, S. aureus ATCC 25923: 128 µg/mL
S. aureus ATCC 25923
  MIC, S. aureus ATCC 25923: > 512 µg/mL
[3]
  MBIC, E. faecalis PCM 2673: >512 µg/mL
[4]
  MBEC, E. faecalis PCM 2673: > 512 µg/mL
E. faecalis PCM 2673
  MIC, E. faecalis PCM 2673: 128 µg/mL (≈ 91.2 µM)
[5]
  MBIC, E. coli ATCC 25922: >512 µg/mL
[6]
  MBEC, E. coli ATCC 25922: 512 µg/mL
E. coli ATCC 25922
  MIC, E. coli ATCC 25922: 128 µg/mL (≈ 91.2 µM)
[7]
  MBIC, P. aeruginosa ATCC 9027: >512 µg/mL
[8]
  MBEC, P. aeruginosa ATCC 9027: > 512 µg/mL
P. aeruginosa ATCC 9027
  MIC, P. aeruginosa ATCC 9027: > 512 µg/mL
[9]
  MBIC, C. albicans ATCC 10231: 8 µg/mL
[10]
  MBEC, C. albicans ATCC 10231: > 512 µg/mL
C. albicans ATCC 10231
  MIC, C. albicans ATCC 10231: 512 µg/mL (≈ 365 µM)
[11]
  Percentage of hemolysis at 16 μg/mL: 0,0%
[11]; 1–256 μg/mL, 4% human RBCs in PBS, 1 h, 37 °C
  Hemolysis over the whole concentration range: did not cause the lysis of RBCs
[11]; red cells of human, 1 h
  Percentage of hemolysis at 1 μg/mL: 0.3%
  Percentage of hemolysis at 2 μg/mL: 0.6%
  Percentage of hemolysis at 4 μg/mL: 0.5%
  Percentage of hemolysis at 8 μg/mL: 0.4%
  Percentage of hemolysis at 32 μg/mL: 0.0%
  Percentage of hemolysis at 64 μg/mL: 0.0%
  Percentage of hemolysis at 128 μg/mL: 0.0%
  Percentage of hemolysis at 256 μg/mL: 0.0%
In vitro
  remaining at 6 h, 0.125 mg/mL: 54%

## CC[C@H](C)[C@H](NC(=O)[C@H](CCCCN)NC(=O)[C@H](CCCCN)NC(=O)[C@@H](NC(=O)[C@@H](NC(=O)[C@H](CC(=O)O)NC(=O)[C@H](Cc1ccccc1)NC(=O)[C@H](CC(C)C)NC(=O)[C@H](C)N)[C@@H](C)CC)[C@@H](C)CC)C(=O)N[C@@H](C)C(=O)N[C@@H](CCC(=O)O)C(=O)N[C@@H](CO)C(=O)N[C@@H](Cc1ccccc1)C(N)=O [Peptide G1A] (H-ALFDIIKKIAESF-NH2)
[1]
  MBIC, S. aureus ATCC 25923: 512 µg/mL
[2]
  MBEC, S. aureus ATCC 25923: 512 µg/mL
S. aureus ATCC 25923
  MIC, S. aureus ATCC 25923: 512 µg/mL (≈ 343 µM)
[3]
  MBIC, E. faecalis PCM 2673: 256 µg/mL
[4]
  MBEC, E. faecalis PCM 2673: > 512 µg/mL
E. faecalis PCM 2673
  MIC, E. faecalis PCM 2673: 128 µg/mL (≈ 85.7 µM)
[5]
  MBIC, E. coli ATCC 25922: 128 µg/mL
[6]
  MBEC, E. coli ATCC 25922: 256 µg/mL
E. coli ATCC 25922
  MIC, E. coli ATCC 25922: 128 µg/mL (≈ 85.7 µM)
[7]
  MBIC, P. aeruginosa ATCC 9027: 256 µg/mL
[8]
  MBEC, P. aeruginosa ATCC 9027: 512 µg/mL
P. aeruginosa ATCC 9027
  MIC, P. aeruginosa ATCC 9027: 512 µg/mL (≈ 343 µM)
[9]
  MBIC, C. albicans ATCC 10231: 4 µg/mL
[10]
  MBEC, C. albicans ATCC 10231: > 512 µg/mL
C. albicans ATCC 10231
  MIC, C. albicans ATCC 10231: 128 µg/mL (≈ 85.7 µM)
[11]; red cells of human, 1 h
  Percentage of hemolysis at 1 μg/mL: 0.0%
  Percentage of hemolysis at 2 μg/mL: 0.0%
  Percentage of hemolysis at 4 μg/mL: 0.0%
  Percentage of hemolysis at 8 μg/mL: 0.0%
  Percentage of hemolysis at 32 μg/mL: 0.0%
  Percentage of hemolysis at 64 μg/mL: 0.0%
  Percentage of hemolysis at 128 μg/mL: 0.3%
  Percentage of hemolysis at 256 μg/mL: 4.2%
[11]; red cells of human, 1 h, 16
  Percentage of hemolysis at 16 μg/mL: 0.0%
In vitro
  remaining at 6 h, 0.125 mg/mL: 16%
